pEC50: −log10 of the molar value.
Target: T1, GST-RIPK1 (recombinant GST-RIPK1 kinase domain (residues 1-327)) (Homo sapiens, UniProt Q13546)
T1 construct: recombinant GST-RIPK1 kinase domain (residues 1-327) enzyme produced from baculovirus-transfected Sf21 cells; host or cells: baculovirus-transfected Sf21 insect cells
T1 sequence (Q13546 1-327): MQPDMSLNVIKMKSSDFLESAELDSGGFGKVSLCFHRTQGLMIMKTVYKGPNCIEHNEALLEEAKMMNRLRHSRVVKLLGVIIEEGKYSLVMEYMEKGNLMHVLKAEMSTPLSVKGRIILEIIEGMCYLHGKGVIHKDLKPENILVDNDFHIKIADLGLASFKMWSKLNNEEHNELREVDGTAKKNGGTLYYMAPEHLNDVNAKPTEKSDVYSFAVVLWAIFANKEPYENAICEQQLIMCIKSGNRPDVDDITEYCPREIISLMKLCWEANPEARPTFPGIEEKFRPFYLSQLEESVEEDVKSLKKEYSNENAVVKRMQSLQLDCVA
Assay: RIPK1-ADP-Glo Enzymatic Assay
Format: biochemical
Details: ten-point titration, top compound concentration of 100000 nM; 25 nM GST-RIPK1, 300 μM ATP, 3 μM dephosphorylated-MBP; 30 min pre-incubation, 150 min reaction
Procedure: RIPK1-ADP-Glo Enzymatic Assay
The enzymatic activity of RIPK1 is measured using an assay derived from ADP-Glo kit (TMPromega), which provides a luminescent-based ADP detection system. Specifically, the ADP generated by RIPK1 kinase is proportionally detected as luminescent signals in a homogenous fashion. In this context, the assessment of the inhibitory effect of small molecules (EC50) is measured by the effectiveness of the compounds to inhibit the ATP to ADP conversion by RIPK1.
In this assay, the potency (EC50) of each compound was determined from a ten-point (1:3 serial dilution; top compound concentration of 100000 nM) titration curve using the following outlined procedure. To each well of a white ProxiPlus 384 well-plate, 30 nL of compound (1% DMSO in final assay volume of 3 μL) was dispensed, followed by the addition of 2 μL of 1× assay buffer (25 mM Hepes 7.3, 20 mM MgCl2, 50 mM NaCl, 1 mM DTT, 0.005% Tween20, and 0.02% BSA) containing 37.5 nM of GST-RIPK1 (recombinant GST-RIPK1 kinase domain (residues 1-327) enzyme produced from baculovirus-transfected Sf21 cells: MW=62 kDa). Plates were placed in an ambient temperature humidified chamber for a 30 minutes pre-incubation with compound. Subsequently, each reaction was initiated by the addition of 1 μL 1× assay buffer containing 900 μM ATP and 3 μM dephosphorylated-MBP substrate. The final reaction in each well of 3 μL consists of 25 nM of GST-RIPK1, 300 μM ATP, and 3 μM dephosphorylated-MBP. Kinase reactions were allowed to proceed for 150 minutes prior to adding ADP-Glo reagents per Promega's outlined kit protocol. Dose-response curves were generated by plotting percent effect (% product conversion; Y-axis) vs. Log 10 compound concentrations (X-axis). EC50 values were calculated using a non-linear regression, four-parameters sigmoidal dose-response model.

SMILES	pEC50
CC1(Oc2cc(C(N)=O)ncn2)CC2(C1)O[C@@H]1CC[C@@H](c3cc(F)cc(F)c3)N1C2=O (stereo partly drawn) [Example 5.2, 6-(((5′S,7a′R)-5′-(3,5-difluorophenyl)-3-methyl-3′-oxotetrahydro-3′H-spiro[cyclobutane-1,2′-pyrrolo[2,1-b]oxazol]-3-yl)oxy)pyrimidine-4-carboxamide]	6.92
N#Cc1ccc(OC2CC3(C2)O[C@@H]2CC[C@@H](c4ccccc4)N2C3=O)cn1 (stereo partly drawn) [Example 8.2, 5-{[(5′S,7a′R)-3′-oxo-5′-phenyltetrahydro-3′H-spiro[cyclobutane-1,2′-pyrrolo[2,1-b][1,3]oxazol]-3-yl]oxy}pyridine-2-carbonitrile]	6.60
O=C1N2[C@@H](CC[C@H]2c2ccccc2)OC12CC(Oc1ccnc(C(F)(F)F)c1)C2 (stereo partly drawn) [Example 8.4, (5′S,7a′R)-5′-phenyl-3-{[2-(trifluoromethyl)pyridin-4-yl]oxy}tetrahydro-3′H-spiro[cyclobutane-1,2′-pyrrolo[2,1-b][1,3]oxazol]-3′-one]	7.07
O=C1N2[C@@H](CC[C@H]2c2ccccc2)OC12CC(Oc1ccncc1F)C2 (stereo partly drawn) [Example 8.7, (5′S,7a′R)-3-[(3-fluoropyridin-4-yl)oxy]-5′-phenyltetrahydro-3′H-spiro[cyclobutane-1,2′-pyrrolo[2,1-b][1,3]oxazol]-3′-one]	7.13
O=C1N2[C@@H](CC[C@H]2c2ccccc2)OC12CC(Oc1cncc(C(F)(F)F)c1)C2 (stereo partly drawn) [Example 8.8, (5′S,7a′R)-5′-phenyl-3-{[5-(trifluoromethyl)pyridin-3-yl]oxy}tetrahydro-3′H-spiro[cyclobutane-1,2′-pyrrolo[2,1-b][1,3]oxazol]-3′-one]	6.81
N#Cc1ccc(OC2CC3(C2)O[C@@H]2CC[C@@H](c4ccccc4)N2C3=O)cc1 (stereo partly shown) [Example 8.9]	7.14

The next compounds have a higher pEC50 than those just listed; values first:

pEC50	SMILES
7.19	COc1cncc(OC2CC3(C2)O[C@@H]2CC[C@@H](c4ccccc4)N2C3=O)c1 (stereo partly drawn) [Example 8.6, (5′S,7a′R)-3-[(5-methoxypyridin-3-yl)oxy]-5′-phenyltetrahydro-3′H-spiro[cyclobutane-1,2′-pyrrolo[2,1-b][1,3]oxazol]-3′-one]
7.51	N#Cc1ccc(O[C@H]2C[C@@]3(C2)O[C@@H]2CC[C@@H](c4ccccc4)N2C3=O)cc1F [Example 8.1, 2-fluoro-4-(((1r,3R,5′S,7a′R)-3′-oxo-5′-phenyltetrahydro-3′H-spiro[cyclobutane-1,2′-pyrrolo[2,1-b]oxazol]-3-yl)oxy)benzonitrile]
7.70	O=C1N2[C@@H](CC[C@H]2c2cnccn2)O[C@]12C[C@H](Oc1ccc(F)cc1F)C2 [Example 7.1, (1r,3R,5′S,7a′R)-3-(2,4-difluorophenoxy)-5′-(pyrazin-2-yl)tetrahydro-3′H-spiro[cyclobutane-1,2′-pyrrolo[2,1-b]oxazol]-3′-one]
7.70	N#Cc1ccc(F)c(OC2CC3(C2)O[C@@H]2CC[C@@H](c4ccccc4)N2C3=O)c1 (stereo partly drawn) [Example 8.3, 4-fluoro-3-{[(5′S,7a′R)-3′-oxo-5′-phenyltetrahydro-3′H-spiro[cyclobutane-1,2′-pyrrolo[2,1-b][1,3]oxazol]-3-yl]oxy}benzonitrile]
7.70	N#Cc1cccc(OC2CC3(C2)O[C@@H]2CC[C@@H](c4ccccc4)N2C3=O)c1 (stereo partly drawn) [Example 8.5, 3-{[(5′S,7a′R)-3′-oxo-5′-phenyltetrahydro-3′H-spiro[cyclobutane-1,2′-pyrrolo[2,1-b][1,3]oxazol]-3-yl]oxy}benzonitrile]
7.74	O=C1N2[C@@H](CC[C@H]2c2cnccn2)O[C@]12C[C@@H](Oc1ccc(F)cc1F)C2 [Example 7.2, (1s,3S,5′S,7a′R)-3-(2,4-difluorophenoxy)-5′-(pyrazin-2-yl)tetrahydro-3′H-spiro[cyclobutane-1,2′-pyrrolo[2,1-b]oxazol]-3′-one]
7.96	O=C1N2[C@@H](CC[C@H]2c2ccccc2)OC12CC(Oc1cccc(F)c1)C2 (stereo partly drawn) [Example 8.10, (5′S,7a′R)-3-(3-fluorophenoxy)-5′-phenyltetrahydro-3′H-spiro[cyclobutane-1,2′-pyrrolo[2,1-b][1,3]oxazol]-3′-one]

From patent US20250154173A1 (Merck Sharp & Dohme LLC, priority 2023, published 2025)
